The text below walks through data of patent US12187752B2, “Solid forms and combination compositions comprising a beta-lactamase inhibitor and uses thereof” (priority 2017, dated 2025).

≈ marks a conversion by molar mass, not a printed value. Entries after “also recorded” stand apart in the source; their conditions may differ. Counter-ions that a name gives are not always drawn. Like-named read-outs stand apart in the source and are kept apart here. A value given as a limit tells only on which side of the number the result lay.

Data set [1] concerns Pseudomonas aeruginosa. Put plainly: MIC testing, Pseudomonas aeruginosa isolates non-susceptible to cefepime. In kind it is cell-based. The conditions noted are these: for % S@8: 554 isolates non-susceptible to cefepime; for MIC50 / MIC90: Pseudomonas aeruginosa.
In data set [2] the test system is Pseudomonas aeruginosa. Put plainly: MIC testing, Pseudomonas aeruginosa isolates non-susceptible to meropenem. The format is cell-based. The conditions noted are these: for % S@8: 507 isolates non-susceptible to meropenem; for MIC50 / MIC90: Pseudomonas aeruginosa.
The test system of data set [3] is Elizabethkingia meningoseptica. The data set is described as follows: MIC testing, Elizabethkingia meningoseptica. In kind it is cell-based. The conditions noted are these: for MIC90 / MIC50: Elizabethkingia meningoseptica.
Data set [4] can be described thus: Stability of aqueous solutions of combination formulation at pH 5.0. In kind it is physicochemical. The settings on record: pH 5.0 at 25° C.
The subject of data set [5] is Stenotrophomonas maltophilia. Put plainly: MIC testing, Stenotrophomonas maltophilia. In kind it is cell-based. The conditions noted are these: for MIC50 / MIC90: Stenotrophomonas maltophilia. The source says: Stenotrophomonas maltophilia is a Gram negative bacillus. It is an opportunistic MDR pathogen. It has been linked to infections with high morbidity and mortality in severely immunocompromised and debilitated individuals.

A short description of data set [6]: Solubility of Compound 1-dihydrochloride in IPA/water mixtures. In kind it is physicochemical. The settings on record: IPA/water mixture, aqueous with cosolvent or surfactant or cyclodextrin, thermodynamic from solid. Here is the method:
In order to design a re-crystallization process for Compound 1-dihydrochloride salt from water as solvent and IPA as anti-solvent, the solubility of the API in these combinations were determined. Suspensions in various water/IPA mixtures were prepared and incubated for 24 hours at 5°, 25°, 40° and 50° C. Upon completion of the incubation time the solids were separated from the mother liquors by centrifugation and filtration and the concentration of Compound 1 in solution was determined by HPLC analysis. The remaining solids were analyzed by HT-XRPD.

Data set [7] can be described thus: Physical stability of Compound 1-dihydrochloride at four temperature/RH conditions. In kind it is physicochemical. As to the method:
A physical stability study of Compound 1-dihydrochloride (mixture of Form 1 and Form 2) was conducted. A solid sample of Compound 1-dihydrochloride was incubated under four relative humidity and temperature conditions: 5° C./ambient RH, 25° C./60% RH, 30° C./65% RH and 40° C./75% RH. At regular intervals, the compound was analyzed by HR-XRPD and TGMS. […] The water content is in line with the monohydrate nature of Compound 1-dihydrochloride Form 1. The TGMS analyses recorded for the 2 weeks and 1-month incubation is also along the 3.8% of water (1 molecule of water per molecule of API).

Data set [8] in a line: Polymorph and hydrate screen: physical stability of solid forms (AAC, drying). In kind it is physicochemical. The settings on record: 40° C. and 75% RH for 2 days. Here is the method: The solids obtained from the various crystallization experiments were analyzed by High Throughput XRPD (HT-XRPD). If relevant, the mother liquors were allowed to evaporate completely, and the remaining solids were analyzed by HT-XRPD. Subsequently, all solids were exposed to accelerated aging conditions for 48 hours at 40° C. and 75% RH (AAC).
From the polymorph screen, four novel diffractograms were identified in addition to the two known forms of Compound 1-dihydrochloride, Form 1 and Form 2. Form 1 was the most abundant solid form found in this polymorph screen. The novel diffractograms were designated Forms 3, 4, 5 and 6. All these forms were found with low frequency and were poorly crystalline. […] The HT-XRPD patterns of the new Forms 3, 4, 5 and 6 are shown in FIG. 12, FIG. 13, FIG. 14, and FIG. 15, respectively.
After completion of the equilibration time, the remaining solids were analyzed by HT-XRPD dry under ambient conditions and dried under vacuum. The mother liquors were analyzed by Karl Fisher titration for water content determination. […] The solutions from these experiments were evaporated under vacuum (200 mBar) and the obtained dried solids analyzed by HT-XRPD. All the solids were then exposed to 40° C. and 75% RH for two days.

In the case of `C[C@@H](O)[C@H]1C(=O)N2C(C(=O)O)=C(S[C@@H]3CN[C@H](C(=O)N(C)C)C3)[C@H](C)[C@H]12` [Meropenem, meropenem], the “% S@8” value in the data set on Pseudomonas aeruginosa [1] came to 36.6%; in the data set on Pseudomonas aeruginosa [2], 0%; in data set [3] (N=10 strains), 0%. In addition, the MIC50 (usually an inhibitory concentration at the 50% level, which refers to growth in some studies and to a panel of isolates in others) in the data set with Pseudomonas aeruginosa [1] was 16 µg/mL (≈ 41.7 µM); with Pseudomonas aeruginosa [2], 32 µg/mL (≈ 83.4 µM); in data set [3] (N=10 strains), 64 µg/mL (≈ 167 µM); in data set [5], 128 µg/mL (≈ 334 µM). Further, the MIC90 (in general, an inhibitory concentration at the 90% level, which refers to growth in some studies and to a panel of isolates in others) in the data set with Pseudomonas aeruginosa [1] (read-out: MIC90) is > 128 µg/mL; in the data set with Pseudomonas aeruginosa [2] (read-out: MIC90), > 128 µg/mL; in data set [3], 128 µg/mL (≈ 334 µM); in data set [5] it was > 128 µg/mL. The “% present, meropenem” value in data set [4] (24 hours) turned out to be 89%. The “% S” value in data set [5] is 0%.

As to `NCCN[C@H]1CC[C@H](CC(=O)N[C@H]2Cc3cccc(C(=O)O)c3OB2O)CC1` [Compound 1-dihydrochloride, (R)-3-(2-(trans-4-(2-aminoethylamino)cyclohexyl)acetamido)-2-hydroxy-3,4-dihydro-2H-benzo[e][1,2]oxaborinine-8-carboxylic acid dihydrochloride], the solubility (as a rule, the concentration that dissolves in the medium under given conditions) at 24 h in data set [6] (5 °C, IPA/H2O (40:60), 5° C.) came to 271 mg/mL; in data set [6] (5 °C, IPA/H2O (50:50), 5° C.) it was 217 mg/mL; in data set [6] (5 °C, IPA/H2O (60:40), 5° C.) it was 129 mg/mL; in data set [6] (5 °C, IPA/H2O (70:30), 5° C.), 78.6 mg/mL; in data set [6] (5 °C, IPA/H2O (80:20), 5° C.), 28 mg/mL; in data set [6] (5 °C, IPA/H2O (90:10), 5° C.) it was 4.2 mg/mL. Further, the solubility at 24 h in data set [6] (25 °C, IPA/H2O (40:60), 25° C.) stood at 429 mg/mL; in data set [6] (25 °C, IPA/H2O (50:50), 25° C.), 336 mg/mL; in data set [6] (25 °C, IPA/H2O (60:40), 25° C.), 205 mg/mL; in data set [6] (25 °C, IPA/H2O (70:30), 25° C.), 101 mg/mL; in data set [6] (25 °C, IPA/H2O (80:20), 25° C.) it was 41.7 mg/mL; in data set [6] (25 °C, IPA/H2O (90:10), 25° C.), 4.2 mg/mL. Besides, the solubility at 24 h amounted to 567 mg/mL in data set [6] (40 °C, IPA/H2O (40:60), 40° C.); 454 mg/mL in data set [6] (40 °C, IPA/H2O (50:50), 40° C.); 424 mg/mL in data set [6] (40 °C, IPA/H2O (60:40), 40° C.); 189 mg/mL in data set [6] (40 °C, IPA/H2O (70:30), 40° C.); 81 mg/mL in data set [6] (40 °C, IPA/H2O (80:20), 40° C.); 5.6 mg/mL in data set [6] (40 °C, IPA/H2O (90:10), 40° C.). In addition, the solubility at 24 h in data set [6] (50 °C, IPA/H2O (40:60), 50° C.) came out at 714 mg/mL; in data set [6] (50 °C, IPA/H2O (50:50), 50° C.) it was 528 mg/mL; in data set [6] (50 °C, IPA/H2O (60:40), 50° C.), 440 mg/mL; in data set [6] (50 °C, IPA/H2O (70:30), 50° C.), 235 mg/mL; in data set [6] (50 °C, IPA/H2O (80:20), 50° C.) it was 102 mg/mL; in data set [6] (50 °C, IPA/H2O (90:10), 50° C.), 7.2 mg/mL. For the same compound, the “Solid form after three days exposure” value in data set [7] (5° C./ambient RH, 25° C./60% RH, 30° C./65% RH and 40° C./75% RH, HR-XRPD, starting mixture of Form 1 and Form 2) was “full conversion to Form 1”. The “Solid form upon incubation for extended periods” value in data set [7] (same four conditions, at least up to 1 month) was “No significant changes in the solid form”.

`NCCN[C@H]1CC[C@H](CC(=O)N[C@H]2Cc3cccc(C(=O)O)c3OB2O)CC1` [Form 6]: the “Physical stability upon exposure to AAC” value in data set [8] is “physically unstable; also recorded: conversion to Form 1 was observed; also recorded: converted to Form 1”.

For the compound `CO/N=C(\C(=O)N[C@@H]1C(=O)N2C(C(=O)[O-])=C(C[N+]3(C)CCCC3)CS[C@H]12)c1csc(N)n1` [Cefepime, cefepime], the “% S@8” value in the data set on Pseudomonas aeruginosa [1] stood at 0%; in the data set with Pseudomonas aeruginosa [2], 30.8%. For the same compound, the MIC50 against Pseudomonas aeruginosa [1] came out at 32 µg/mL (≈ 66.6 µM); against Pseudomonas aeruginosa [2] it was 32 µg/mL (≈ 66.6 µM); in data set [3] (N=10 strains), 16 µg/mL (≈ 33.3 µM); in data set [5] (read-out: MIC50), 32 µg/mL (≈ 66.6 µM). Besides, the MIC90 was found to be 256 µg/mL (≈ 533 µM) against Pseudomonas aeruginosa [1]; 256 µg/mL (≈ 533 µM) in the data set on Pseudomonas aeruginosa [2]; 32 µg/mL (≈ 66.6 µM) in data set [3] (N=10 strains, read-out: MIC90); 64 µg/mL (≈ 133 µM) in data set [5]. In addition, the “MIC Range” value with Pseudomonas aeruginosa [2] (507 isolates non-susceptible to meropenem (MIC>8 μg/mL)) is listed as 1-128; in data set [3] (N=10 strains, in µg/mL) it was 16-32. Besides, in data set [4] (20 hours), the “% present, cefepime” value stood at 99%. The “% S” value in data set [5] is 20%.
